Test results published in US7485750B2, “Hydroxamic acid derivatives and the preparation method thereof” (Amorepacific Corporation, priority 2005, dated 2009).

Columns and labels:
mice = assay: Contraction of skin pores in mice after topical application; assay type: in vivo; conditions: 0.5 ml of 1% solution in 1,3-butylene glycol:ethanol=7:3 applied for 1 day, back biopsied 24 hours later, control group 65
Experimental: The compounds of Examples 1-24 were dissolved in solvent (1,3-butylene glycol:ethanol=7:3) to give 1% solution of test samples. To forty-six (46) mice, 0.5 ml of the test sample solution was applied for 1 day, 24 hours later, their back part was biopsied. The epidermis was separated, then soaked in 0.5% acetic acid, then fixed in 10% formalin, and cut vertically by […]. After dying with hematoxylin and eosin, the size of skin pore was measured using Mechanical eyepiece micrometer.

[1] = system: Human keratinocyte (HaCaT) cell line; assay: Antioxidative effect: lipid peroxidation assay (MDA, 4-HNE) in t-BHP-treated HaCaT cells; assay type: cell-based; parameters: unit not given here; conditions: control without treatment = 100
Experimental: This example illustrates the antioxidative effect of the hydroxamic acid derivatives obtained in Examples 1 to 24, in comparison with tocoperol and EGCG (EpiGalloCatechin Gallate). Human keratinocyte (HaCaT) cell line was divided into 1.0×10^6 per 60 mm dish, and was cultured for 1 day at 37° C., 5% CO2, using DMEM (FBS 10%) medium containing penicillin/streptomycin, and then was treated with 10^−4 mol % of hydroxamic acid derivatives. The same treatment was performed with tocoperol and EGCG, as positive controls, of the same concentration. The next day, HaCaT cells were treated with 4 mM of BHP (t-butyl hydroperoixe), and were cultured for 4 hours at 37° C., 5% CO2, and the cells were obtained. Lysis of the cells was performed on the cells by way of repeating the freeze/thawing process. The following experiment was performed according to the method presented in the assay kit.
Cabiochem Lipid peroxidation assay kit (Cat. No. 437634) was used as reagent in the present invention, and lipid peroxidation was measured using the principle that peroxidation products of ester which relate to long chain unsaturated fatty acid, such as malondialdehyde (MDA), and 4-hydroxyalkenal, i.e., 4-hydroxy-2(E)-nonenal (4-HNE), react with the reagent to form a stable compound at 586 nm.

Human fibroblasts = assay: Collagen biosynthesis: procollagen type (I) ELISA in human fibroblasts; assay type: cell-based; conditions: 10^-4 M in serum-free medium, 24 hours, relative value, control group = 100
Experimental: Human fibroblasts were seeded into 24-well plates at 1×10^5 cells per well and then cultured to 90% of growth. The fibroblastes were then cultured in serum-free DMEM for 24 hours and treated with 10^−4 M of the hydroxamic acid derivatives of Examples 1-24, tocoperol and EGCG, in serum-free medium, and then incubated in a CO2 incubator for 24 hours.
For each supernatant, procollagen production was measured with procollagen type (I) ELISA kit. The results are shown in Table 2, in which collagen biosynthesis was evaluated as a relative value, in consideration that the value of the control group with no material treated is 100.

[2] = HaCaT cells pretreated with 10^-4 mol % test material, next day 4 mM t-BHP for 4 hours, lipid peroxidation at 586 nm

For `O=C(O[C@@H]1Cc2c(O)cc(O)cc2O[C@@H]1c1cc(O)c(O)c(O)c1)c1cc(O)c(O)c(O)c1` [EGCG, EpiGalloCatechin Gallate, reference compound], the Size of skin pore (mice) was 60 µm, the “MDA, HNE” value [1, 2] was 230 and the “Collagen biosynthesis (%)” value (Human fibroblasts) was 120%.

`COc1ccc(C(=O)Nc2ccc(C(=O)NO)cc2)cc1OC` [Example 1, N-[4-(N-hydroxycarbamoyl)phenyl][3,4-dimethoxyphenyl]carboxyamide] was tested, and the Size of skin pore (mice) was 56 µm, the “MDA, HNE” value [1, 2] was 190 and the “Collagen biosynthesis (%)” value (Human fibroblasts) was 123%.

For `CCOc1ccc(C(=O)Nc2ccc(C(=O)NO)cc2)cc1OCC` [Example 2, N-[4-(N-hydroxycarbamoyl)phenyl][3,4-diethoxyphenyl]carboxyamide], the Size of skin pore (mice) was 50 µm, the “MDA, HNE” value [1, 2] was 200 and the “Collagen biosynthesis (%)” value (Human fibroblasts) was 131%.

For `CC(C)Oc1ccc(C(=O)Nc2ccc(C(=O)NO)cc2)cc1OC(C)C` [Example 3, N-[4-(N-hydroxycarbamoyl)phenyl][3,4-diisopropoxyphenyl]carboxyamide], the Size of skin pore (mice) was 54 µm, the “MDA, HNE” value [1, 2] was 211 and the “Collagen biosynthesis (%)” value (Human fibroblasts) was 122%.

`CCCOc1ccc(C(=O)Nc2ccc(C(=O)NO)cc2)cc1OCCC` [Example 4, N-[4-(N-hydroxycarbamoyl)phenyl][3,4-dipropoxyphenyl]carboxyamide] was tested, and the Size of skin pore (mice) was 52 µm, the “MDA, HNE” value [1, 2] was 189 and the “Collagen biosynthesis (%)” value (Human fibroblasts) was 111%.

`CCCCOc1ccc(C(=O)Nc2ccc(C(=O)NO)cc2)cc1OCCCC` [Example 5, N-[4-(N-hydroxycarbamoyl)phenyl][3,4-dibutoxyphenyl]carboxyamide] was tested, and the Size of skin pore (mice) was 53 µm, the “MDA, HNE” value [1, 2] was 211 and the “Collagen biosynthesis (%)” value (Human fibroblasts) was 121%.

`CC(C)(C)Oc1ccc(C(=O)Nc2ccc(C(=O)NO)cc2)cc1OC(C)(C)C` [Example 6, N-[4-(N-hydroxycarbamoyl)phenyl][3,4-di-tert-butoxyphenyl]carboxyamide] was tested, and the Size of skin pore (mice) was 54 µm, the “MDA, HNE” value [1, 2] was 231 and the “Collagen biosynthesis (%)” value (Human fibroblasts) was 135%.

With `COc1ccc(C(=O)Nc2ccc(C(=O)N(C)O)cc2)cc1OC` [Example 7, [4-((3,4-dimethoxyphenyl)carbonylamino)phenyl]-N-hydroxy-N-methyl carboxyamide] the Size of skin pore (mice) was 55 µm, the “MDA, HNE” value [1, 2] was 220 and the “Collagen biosynthesis (%)” value (Human fibroblasts) was 111%.

For `CCOc1ccc(C(=O)Nc2ccc(C(=O)N(C)O)cc2)cc1OCC` [Example 8, [4-((3,4-diethoxyphenyl)carbonylamino)phenyl]-N-hydroxy-N-methyl carboxyamide], the Size of skin pore (mice) was 50 µm, the “MDA, HNE” value [1, 2] was 190 and the “Collagen biosynthesis (%)” value (Human fibroblasts) was 112%.

With `CC(C)Oc1ccc(C(=O)Nc2ccc(C(=O)N(C)O)cc2)cc1OC(C)C` [Example 9, [4-((3,4-diisopropoxyphenyl)carbonylamino)phenyl]-N-hydroxy-N-methyl carboxyamide] the Size of skin pore (mice) was 51 µm, the “MDA, HNE” value [1, 2] was 187 and the “Collagen biosynthesis (%)” value (Human fibroblasts) was 123%.

For `CCCOc1ccc(C(=O)Nc2ccc(C(=O)N(C)O)cc2)cc1OCCC` [Example 10, [4-((3,4-dipropoxyphenyl)carbonylamino)phenyl]-N-hydroxy-N-methyl carboxyamide], the Size of skin pore (mice) was 52 µm, the “MDA, HNE” value [1, 2] was 140 and the “Collagen biosynthesis (%)” value (Human fibroblasts) was 126%.

In the case of `CCCCOc1ccc(C(=O)Nc2ccc(C(=O)N(C)O)cc2)cc1OCCCC` [Example 11, [4-((3,4-dibutoxyphenyl)carbonylamino)phenyl]-N-hydroxy-N-methylcarboxyamide], the Size of skin pore (mice) was 56 µm, the “MDA, HNE” value [1, 2] was 198 and the “Collagen biosynthesis (%)” value (Human fibroblasts) was 121%.

`CN(O)C(=O)c1ccc(NC(=O)c2ccc(OC(C)(C)C)c(OC(C)(C)C)c2)cc1` [Example 12, [4-((3,4-di-tert-butoxyphenyl)carbonylamino)phenyl]-N-hydroxy-N-methyl carboxyamide] was tested, and the Size of skin pore (mice) was 54 µm, the “MDA, HNE” value [1, 2] was 176 and the “Collagen biosynthesis (%)” value (Human fibroblasts) was 123%.

For `COc1ccc(C(=O)Nc2ccc(CC(=O)NO)cc2)cc1OC` [Example 13, N-(4-((hydroxycarbamoyl)methyl)phenyl)-3,4-dimethoxy benzamide], the Size of skin pore (mice) was 55 µm, the “MDA, HNE” value [1, 2] was 150 and the “Collagen biosynthesis (%)” value (Human fibroblasts) was 111%.

For `CCOc1ccc(C(=O)Nc2ccc(CC(=O)NO)cc2)cc1OCC` [Example 14, N-(4-((hydroxycarbamyl)methyl)phenyl)-3,4-diethoxy benzamide], the Size of skin pore (mice) was 50 µm, the “MDA, HNE” value [1, 2] was 220 and the “Collagen biosynthesis (%)” value (Human fibroblasts) was 121%.

For `CC(C)Oc1ccc(C(=O)Nc2ccc(CC(=O)NO)cc2)cc1OC(C)C` [Example 15, N-(4-((hydroxycarbamoyl)methyl)phenyl)-3,4-diisopropoxy benzamide], the Size of skin pore (mice) was 51 µm, the “MDA, HNE” value [1, 2] was 213 and the “Collagen biosynthesis (%)” value (Human fibroblasts) was 134%.

For `CCCOc1ccc(C(=O)Nc2ccc(CC(=O)NO)cc2)cc1OCCC` [Example 16, N-(4-((hydroxycarbamoyl)methyl)phenyl)-3,4-dipropoxy benzamide], the Size of skin pore (mice) was 52 µm, the “MDA, HNE” value [1, 2] was 199 and the “Collagen biosynthesis (%)” value (Human fibroblasts) was 131%.

For `CCCCOc1ccc(C(=O)Nc2ccc(CC(=O)NO)cc2)cc1OCCCC` [Example 17, N-(4-((hydroxycarbamoyl)methyl)phenyl)-3,4-dibutoxy benzamide], the Size of skin pore (mice) was 56 µm, the “MDA, HNE” value [1, 2] was 200 and the “Collagen biosynthesis (%)” value (Human fibroblasts) was 123%.

In the case of `CC(C)(C)Oc1ccc(C(=O)Nc2ccc(CC(=O)NO)cc2)cc1OC(C)(C)C` [Example 18, N-(4-((hydroxycarbamoyl)methyl)phenyl)-3,4-di-tert-butoxy benzamide], the Size of skin pore (mice) was 57 µm, the “MDA, HNE” value [1, 2] was 232 and the “Collagen biosynthesis (%)” value (Human fibroblasts) was 122%.

`COc1ccc(C(=O)Nc2ccc(CC(=O)N(C)O)cc2)cc1OC` [Example 19] was tested, and the Size of skin pore (mice) was 54 µm, the “MDA, HNE” value [1, 2] was 212 and the “Collagen biosynthesis (%)” value (Human fibroblasts) was 142%.

With `CCOc1ccc(C(=O)Nc2ccc(CC(=O)N(C)O)cc2)cc1OCC` [Example 20] the Size of skin pore (mice) was 51 µm, the “MDA, HNE” value [1, 2] was 196 and the “Collagen biosynthesis (%)” value (Human fibroblasts) was 123%.

`CC(C)Oc1ccc(C(=O)Nc2ccc(CC(=O)N(C)O)cc2)cc1OC(C)C` [Example 21] was tested, and the Size of skin pore (mice) was 55 µm, the “MDA, HNE” value [1, 2] was 190 and the “Collagen biosynthesis (%)” value (Human fibroblasts) was 121%.

`CCCOc1ccc(C(=O)Nc2ccc(CC(=O)N(C)O)cc2)cc1OCCC` [Example 22] was tested, and the Size of skin pore (mice) was 52 µm, the “MDA, HNE” value [1, 2] was 188 and the “Collagen biosynthesis (%)” value (Human fibroblasts) was 122%.

`CCCCOc1ccc(C(=O)Nc2ccc(CC(=O)N(C)O)cc2)cc1OCCCC` [Example 23] was tested, and the Size of skin pore (mice) was 51 µm, the “MDA, HNE” value [1, 2] was 188 and the “Collagen biosynthesis (%)” value (Human fibroblasts) was 123%.

For `CN(O)C(=O)Cc1ccc(NC(=O)c2ccc(OC(C)(C)C)c(OC(C)(C)C)c2)cc1` [Example 24], the Size of skin pore (mice) was 50 µm, the “MDA, HNE” value [1, 2] was 197 and the “Collagen biosynthesis (%)” value (Human fibroblasts) was 131%.

`Cc1c(C)c2c(c(C)c1O)CC[C@@](C)(CCC[C@H](C)CCC[C@H](C)CCCC(C)C)O2` [Tocoperol, tocoperol, reference compound] was tested, and the Size of skin pore (mice) was 64 µm, the “MDA, HNE” value [1, 2] was 250 and the “Collagen biosynthesis (%)” value (Human fibroblasts) was 113%.

In the case of `CC(C)(C)OO` [t-BHP, t-butyl hydroperoixe, reference compound], the “MDA, HNE” value ([1]; HaCaT cells treated with 4 mM t-BHP alone for 4 hours) was 320.
